From publication PMC11266668, “Unraveling the mechanism of small molecule induced activation of Staphylococcus aureus signal peptidase IB” (Communications Biology, 2024)
Where “and” joins values, the source holds several entries; their conditions need not be identical. Equal entries are not always repeated.

Assays:
wt SpsB = target: T1, wt SpsB (Staphylococcus aureus, UniProt P0A070); test: FRET-based signal peptidase assay with membrane-bound SpsB (wt); assay type: biochemical, S. aureus; conditions: for wt A4 (normalized activity): replicates
T1 construct: recombinantly expressed full-length S. aureus SpsB (wt) or mutants; made in house; host or cells: E. coli BL21(DE3)pLysS, membrane fraction
Description: (§1) For preparation of E. coli membrane fractions harboring overexpressed S. aureus SpsB, E. coli BL21(DE3) pLysS cells harboring pET-55-DEST-fl-SpsB or respective mutant plasmids (F67A, Y75A, F158A, Q165A, F67A-Y75A, F67A-F158A, Y75A-F158A, F67A-Y75A-F158A) were grown in LB medium (supplemented with Ampicillin (100 µg/mL) and Chloramphenicol (34 µg/mL)) at 37°C (200 rpm) to OD600 ≈ 0.6 and protein overexpression was induced by the addition of isopropyl-1-thio-β-galactopyranoside (IPTG, 0.5 mM). After incubation (22 °C, 200 rpm, 3 h), cells were harvested by centrifugation (6000 × g, 4 °C, 10 min) and subsequently washed with PBS. The cell pellet was resuspended in 5 mL Tris-HCl buffer (50 mM, pH = 7.5) and lysed using a bead beater homogenizer (3 cycles: 5500 rpm for 45 s, 30 s cooling; Precellys Ceramic Kit CK01L, 7.0 mL tubes; Precellys 24 Homogenizer, Bertin Technologies). The lysate was centrifuged (12,000 × g, 4 °C, 10 min) to remove intact cells and debris. Membranes were collected from supernatant (39,000 × g, 4 °C, 75 min) and resuspended in ice-cold sodium phosphate buffer (50 mM, pH 7.5). Protein concentration was measured using the Pierce BCA Protein assay kit (Thermo Fisher Scientific, Pierce Biotechnology) and snap-frozen aliquots were stored at −80 °C.
(§2) Signal cleavage activities of recombinantly expressed full-length S. aureus SpsB (wt) or mutants (F67A, Y75A, F158A, Q165A, F67A-Y75A, F67A-F158A, Y75A-F158A, F67A-Y75A-F158A) in E. coli membranes were measured using a Förster Resonance Energy Transfer (FRET) assay as previously described[20],[36].
A synthetic peptide substrate based on SceD modified by 4-(4- dimethylaminophenylazo)benzoic (DABCYL) acid and 5-((2-aminoethyl)amino)-1- naphthalenesulfonic acid (EDANS) was used (DABCYL-[…]-EDANS, AnaSpec) as FRET substrate. Assays were performed with overexpressed wildtype SpsB (wt) or mutant (F67A, Y75A, F158A, Q165A, F67A-Y75A, F67A-F158A, Y75A-F158A, F67A-Y75A-F158A) in E. coli membranes. As controls for background activity, respective E. coli membranes without IPTG induction were used (see Experimental procedure “Preparation of E. coli membrane (control) fractions. Membranes containing recombinant wildtype SpsB or mutant (50 µg/mL membrane concentration, 100 µL/well final volume, sodium phosphate buffer, 50 mM, pH 7.5, addition of detergent if indicated; final concentrations in buffer: 0.1% CHAPS, 0.001% NP-40 or 0.1% Tween) were pre-treated with PK150, Arylomycin A4 or DMSO as a control (final concentration 1%) at 37 °C for 5 min. After addition of FRET substrate (10 µM final substrate concentration; final DMF concentration from substrate stock 1%), fluorescence turnover was monitored by an Infinite™ M Nano Tecan 200Pro reader (340 nm excitation and 510 nm emission wavelengths, fluorescence top reading mode) at 37 °C for at least 2 h.
The assay was performed in technical triplicates for at least three biologically independent experiments (n ≥ 3). Significance of cleavage activity was determined via a two-tailed Students t-test for comparison of membranes treated with DMSO to PK150.

SpsB F158A mutant = target: T2, SpsB F158A mutant (Staphylococcus aureus, UniProt P0A070, F158A); test: FRET-based signal peptidase assay with membrane-bound SpsB, F158A mutant; assay type: biochemical, S. aureus; conditions: for F158A A4 (normalized activity): replicates
T2 construct: recombinantly expressed full-length S. aureus SpsB (wt) or mutants; made in house; host or cells: E. coli BL21(DE3)pLysS, membrane fraction
T2 sequence (P0A070 1-191 F158A): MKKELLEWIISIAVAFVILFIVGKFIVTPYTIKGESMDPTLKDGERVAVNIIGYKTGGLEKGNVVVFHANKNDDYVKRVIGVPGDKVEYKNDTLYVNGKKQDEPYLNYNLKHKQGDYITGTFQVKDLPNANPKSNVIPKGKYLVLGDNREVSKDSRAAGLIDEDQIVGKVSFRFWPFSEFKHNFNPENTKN
Description: Cloning of full-length SpsB (fl-SpsB) was performed using the Invitrogen Gateway Technology in previous works by Le et al.. fl-SpsB was cloned into the destination vector pET-55-DEST (Novagen) and transformed into chemically competent E. coli BL21(DE3)pLysS cells (Promega) to prevent leaky protein overexpression. Plasmid DNA of wildtype SpsB pET-55-DEST-fl-SpsB was purified using a plasmid Miniprep Kit (peqGOLD Plasmid Miniprep Kit II, VWR Peqlab) according to the manufacturer’s instructions and used as template for all single point mutations (F67A, Y75A, F158A, Q165A). For double (F67A-Y75A, F67A-F158A, Y75A-F158A) or triple point (F67A-Y75A-F158A) mutations, the respective pET-55-DEST-fl-SpsB single point mutation or double point mutation plasmids were isolated and used as template for site-directed mutagenesis. Point mutation primers (Sigma) were designed based on the pET-55-dest-fl-SpsB construct according to the manufacturer’s instructions (Agilent). Primer sequences and order of point mutation introduction for all point mutations are listed in Supplementary Table S4. QuikChange site-directed mutagenesis PCR reactions were performed using either Phusion High-Fidelity DNA Polymerase (New England BioLabs, mutations: F67A, Q165A) or Q5 High-Fidelity DNA Polymerase (New England BioLabs, mutations: Y75A, F158A, F67A-Y75A, F67A-F158A, Y75A-F158A, F67A-Y75A-F158A) using the cycle listed below (Supplementary Table S5). The PCR mixture contained 10 µL GC buffer (NEB), 1 µL dNTP mix (10 mM), 1 µL forward primer (10 µM), 1 µL reverse primer (10 µM), 1 µL plasmid template (25 – 50 ng), 1.5 µL DMSO and 1 µL Phusion or Q5 High Fidelity DNA polymerase (NEB) and 33 µL ddH2O.
as §1, §2
A synthetic peptide substrate based on SceD modified by 4-(4- dimethylaminophenylazo)benzoic (DABCYL) acid and 5-((2-aminoethyl)amino)-1- naphthalenesulfonic acid (EDANS) was used (DABCYL-[…]-EDANS, AnaSpec) as FRET substrate. Assays were performed with overexpressed wildtype SpsB (wt) or mutant (F67A, Y75A, F158A, Q165A, F67A-Y75A, F67A-F158A, Y75A-F158A, F67A-Y75A-F158A) in E. coli membranes. […]

CCC(C)CCCCCCCCC(=O)N(C)[C@H](CO)C(=O)N[C@H](C)C(=O)NCC(=O)N(C)C1C(=O)N[C@@H](C)C(=O)NC(C(=O)O)Cc2ccc(O)c(c2)-c2cc1ccc2O (some centres unmarked) [Arylomycin A4]
activity observed (comment) (wt SpsB; >= 6.25 µM A4, wt): no activity observed >= 6.25 µM A4
wt A4 (normalized activity) (wt SpsB; A4 0.195uM): 45.9128 and 47.6989 and 41.1571 and 57.7909
wt A4 (normalized activity) (wt SpsB; A4 0.39uM): 29.005 and 27.5696 and 32.0075 and 46.11
wt A4 (normalized activity) (wt SpsB; A4 0.78uM): 22.2989 and 17.0381 and 18.021 and 27.9093
wt A4 (normalized activity) (wt SpsB; A4 1.5625uM): 12.8972 and 7.451 and 11.5505 and 15.4289
wt A4 (normalized activity) (wt SpsB; A4 3.125uM): 11.0377 and 3.5503 and 8.876 and 8.105
wt A4 (normalized activity) (wt SpsB; A4 0,006uM): 95.8032 and 76.7916 and 108.843
wt A4 (normalized activity) (wt SpsB; A4 6.25uM): 6.541 and -3.189 and 3.474 and 4.294
wt A4 (normalized activity) (wt SpsB; A4 0,012uM): 85.1742 and 80.5391 and 106.049
wt A4 (normalized activity) (wt SpsB; A4 12.5uM): 6.292
wt A4 (normalized activity) (wt SpsB; A4 0,024uM): 82.0951 and 107.605 and 99.2001
wt A4 (normalized activity) (wt SpsB; A4 25uM): 5.273
wt A4 (normalized activity) (wt SpsB; A4 0,048uM): 88.089 and 72.2661 and 88.1109
wt A4 (normalized activity) (wt SpsB; A4 50uM): 0
wt A4 (normalized activity) (wt SpsB; A4 0,097uM): 68.2227 and 67.6529 and 63.3355 and 86.9713
IC50 (wt SpsB; wt): 210 nM
activity observed (comment) (SpsB F158A mutant; >= 6.25 µM A4, F158A): no activity observed >= 6.25 µM A4
F158A A4 (normalized activity) (SpsB F158A mutant; A4 0,39µM): 32.4463 and 49.9171 and 42.4421 and 52.4288
F158A A4 (normalized activity) (SpsB F158A mutant; A4 0,78µM): 16.172 and 26.1385 and 26.2791 and 38.6178
F158A A4 (normalized activity) (SpsB F158A mutant; A4 0,006µM): 114.109 and 96.9597 and 113.52
F158A A4 (normalized activity) (SpsB F158A mutant; A4 0,012µM): 105.97 and 95.3486 and 96.5076
F158A A4 (normalized activity) (SpsB F158A mutant; A4 0,024µM): 106.863 and 85.3442 and 101.455
F158A A4 (normalized activity) (SpsB F158A mutant; A4 25uM): 1.625
F158A A4 (normalized activity) (SpsB F158A mutant; A4 0,049µM): 49.0532 and 88.7486 and 79.7833 and 90.4487
F158A A4 (normalized activity) (SpsB F158A mutant; A4 50uM): 0
F158A A4 (normalized activity) (SpsB F158A mutant; A4 0,097µM): 43.0655 and 77.8288 and 72.5853 and 85.1042
F158A A4 (normalized activity) (SpsB F158A mutant; A4 0,195µM): 35.3889 and 69.8941 and 59.8004 and 66.9013
F158A A4 (normalized activity) (SpsB F158A mutant; A4 3,125µM): 9.135 and 8.856 and 10.0772 and 7.1542
F158A A4 (normalized activity) (SpsB F158A mutant; A4 6,25µM): 5.328 and 0 (3×)
F158A A4 (normalized activity) (SpsB F158A mutant; A4 12,5uM): 3.344
F158A A4 (normalized activity) (SpsB F158A mutant; A4 1,5626µM): 13.3342 and 20.0153 and 23.1869 and 21.923
IC50 (SpsB F158A mutant; F158A mutant): 229 nM

C[S+](C)[O-] [DMSO]
wt DMSO + 0.001% NP-40 norm. value (wt SpsB; 0.001% NP-40, normalized to DMSO + 0.001% NP-40 (100), single biological replicates): 144.811 and 130.505
wt DMSO + 0.01% Tween norm. value (wt SpsB; 0.01% Tween, normalized to DMSO + 0.01% Tween (100), single biological replicates): 133.237 and 138.302
wt DMSO + 0.1% Chaps norm. value (wt SpsB; 0.1% Chaps, normalized to DMSO + 0.1% Chaps (100), single biological replicates): 187.838 and 176.739
